Assay results from patent US20240158446A1, “CYCLIC COMPOUND HAVING SELECTIVE INHIBITORY ACTION ON KRAS OVER HRAS AND NRAS” (CHUGAI SEIYAKU KABUSHIKI KAISHA, priority 2021, published 2024).
Where a SMILES comes first, the peptide text is derived from it. Bridges are numbered along the chain shown (N, C = ends). [ ]: non-standard residue; d: D form. The star is where a group is joined. hPhe(3-Cl-4-CF3) = N[C@@H](CCc1ccc(C(F)(F)F)c(Cl)c1)C(=O)O; NPrPhe(4-CF3) = CCCN[C@@H](Cc1ccc(C(F)(F)F)cc1)C(=O)O; NMeGly(cPent) = CN[C@H](C(=O)O)C1CCCC1; NEtLeu = CCN[C@@H](CC(C)C)C(=O)O; NMeD = CN[C@@H](CC(=O)O)C(=O)O; NMeL = CN[C@@H](CC(C)C)C(=O)O; Morpholide = C1CN(*)CCO1; Piperidide = C1CCN(*)CC1; Ac4c = NC1(C(=O)O)CCC1; Sar = CNCC(=O)O

Columns and labels:
[1] = system: human lung cancer strain NCI-H441; assay: cells; settings: NCI-H441, 96 h, read-out: NCI-H441 IC50 (nM), NCI-H441 cell proliferation, 4 days, CellTiter-Glo;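 note: cell proliferation inhibition after four days measured by CellTiter-Glo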
[2] = molecular target: GDP-bound HRAS wild-type protein (Homo sapiens, UniProt P01112); assay: Binding to HRAS by surface plasmon resonance (SPR), Single Cycle Kinetics; settings: ratio of KD for GDP-bound HRAS wild-type protein to KD for KRAS, SPR
Chain of GDP-bound HRAS wild-type protein (P01112 whole entry): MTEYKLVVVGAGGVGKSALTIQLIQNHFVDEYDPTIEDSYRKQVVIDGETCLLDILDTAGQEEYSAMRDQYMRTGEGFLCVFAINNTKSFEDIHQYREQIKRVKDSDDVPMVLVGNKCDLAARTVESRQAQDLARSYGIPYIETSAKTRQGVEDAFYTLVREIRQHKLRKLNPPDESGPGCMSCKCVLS

[3] = molecular target: GDP-bound NRAS wild-type protein (Homo sapiens, UniProt P01111); assay: Binding to NRAS by surface plasmon resonance (SPR), Single Cycle Kinetics; settings: ratio of KD for GDP-bound NRAS wild-type protein to KD for KRAS, SPR
Chain of GDP-bound NRAS wild-type protein (P01111 whole entry): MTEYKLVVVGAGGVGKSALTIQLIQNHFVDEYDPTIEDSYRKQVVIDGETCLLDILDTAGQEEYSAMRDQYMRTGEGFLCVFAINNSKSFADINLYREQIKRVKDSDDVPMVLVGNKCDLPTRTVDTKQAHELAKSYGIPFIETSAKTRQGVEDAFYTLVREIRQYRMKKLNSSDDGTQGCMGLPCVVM

[4] = molecular target: GDP-bound KRAS wild-type protein (Homo sapiens, UniProt P01116); assay: Binding to KRAS by surface plasmon resonance (SPR), Single Cycle Kinetics; settings: SPR, Single Cycle Kinetics, GDP-bound KRAS wild-type protein; read-out: KRAS KD
Chain of GDP-bound KRAS wild-type protein (P01116 whole entry): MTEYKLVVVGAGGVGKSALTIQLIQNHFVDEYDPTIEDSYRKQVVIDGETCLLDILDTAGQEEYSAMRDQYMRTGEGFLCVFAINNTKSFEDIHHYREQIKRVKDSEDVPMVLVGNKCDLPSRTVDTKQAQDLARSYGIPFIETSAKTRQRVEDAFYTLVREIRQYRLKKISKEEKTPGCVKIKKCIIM

| SMILES | IC50 [1] [nM] | Kd [4] [nM] | HRAS/KRAS (KD ratio) [2] | NRAS/KRAS (KD ratio) [3] |
| --- | --- | --- | --- | --- |
| CC[C@H](C)[C@@H]1NC(=O)[C@H](CC)N(C)C(=O)C[C@@H](C(=O)N(C)CC)N(C)C(=O)[C@H](C2CCCC2)N(C)C(=O)C2(CC(C)(C)C2)NC(=O)[C@@H]2C[C@@H](C)CN2C(=O)[C@H](CCc2ccc(C(F)(F)F)c(Cl)c2)NC(=O)CN(C)C(=O)[C@H](Cc2ccc(C)cc2)N2CC/C=C\C[C@@H](C2=O)N(C)C(=O)CN(C)C1=O [PP1876] | 23 | 0.2 | A (a compound having 10 or more and less than 20 is denoted as A) | A (a compound having 10 or more and less than 20 is denoted as A) |
| CCCN1C(=O)CN(C)C(=O)CN(C)C(=O)[C@H]([C@@H](C)CC)NC(=O)[C@H](CC(C)C)N(CC)C(=O)C[C@@H](C(=O)N2CCOCC2)N(C)C(=O)[C@H](C2CCCC2)N(C)C(=O)C2(CCC2)NC(=O)[C@@H]2CCCN2C(=O)[C@H](CCc2ccc(C(F)(F)F)c(Cl)c2)NC(=O)CN(C)C(=O)[C@@H]1Cc1ccc(C(F)(F)F)cc1 [PP1946] ([NEtLeu]I[Sar][Sar][NPrPhe(4-CF3)][Sar][hPhe(3-Cl-4-CF3)]P[Ac4c][NMeGly(cPent)][NMeD]-Morpholide; lactam N-11) | 15.2 | 0.16 | C (A compound having a KD ratio of 0.1 or more and less than 3 is denoted as C) | B (a compound having 3 or more and less than 10 is denoted as B) |
| CC[C@H](C)[C@@H]1NC(=O)[C@H](CC)N(C)C(=O)C[C@@H](C(=O)N(CC)CC)N(C)C(=O)[C@H](C2CCCC2)N(C)C(=O)C2(CC(C)(C)C2)NC(=O)[C@@H]2C[C@H](C)CN2C(=O)[C@H](CCc2ccc(C(F)(F)F)c(OC)c2)NC(=O)CN(C)C(=O)[C@H](Cc2ccc(C)cc2)N2CC/C=C\C[C@@H](C2=O)N(C)C(=O)CN(C)C1=O [PP1839] | 24.3 | 0.31 | B (a compound having 3 or more and less than 10 is denoted as B) | A (a compound having 10 or more and less than 20 is denoted as A) |
| CCCN(C)C(=O)[C@@H]1CC(=O)N(C)[C@@H](C2CC2)C(=O)N[C@@H]([C@@H](C)CC)C(=O)N(C)CC(=O)N(C)[C@H]2C/C=C\CCN(C2=O)[C@@H](Cc2ccc(C(F)(F)F)cc2)C(=O)N(C)CC(=O)N[C@@H](CCc2cc(F)c(C(F)(F)F)c(F)c2)C(=O)N2C[C@H](OCC)C[C@H]2C(=O)NC2(CCC2)C(=O)N(C)[C@@H](C2CCCC2)C(=O)N1C [PP1994] | 22.4 | 0.1 | A (a compound having 10 or more and less than 20 is denoted as A) | AA (a compound having 20 or more is denoted as AA) |
| CC[C@H](C)[C@@H]1NC(=O)[C@H](C(C)C)N(C)C(=O)C[C@@H](C(=O)N(C)C)N(C)C(=O)[C@H](C2CCCC2)N(C)C(=O)C2(CC(C)(C)C2)NC(=O)[C@@H]2C[C@H](C)CN2C(=O)[C@H](CCc2ccc(C(F)(F)F)c(OC)c2)NC(=O)CN(C)C(=O)[C@H](Cc2ccc(C(F)(F)F)cc2)N2CC/C=C\C[C@@H](C2=O)N(C)C(=O)CN(C)C1=O [PP2005] | 10.7 | 0.13 | A (a compound having 10 or more and less than 20 is denoted as A) | A (a compound having 10 or more and less than 20 is denoted as A) |
| CCO[C@@H]1C[C@H]2C(=O)NC3(CC(F)(F)C3)C(=O)N(C)[C@@H](C3CCCC3)C(=O)N(C)[C@H](CC)CC(=O)N(C)[C@@H](CC3CC3)C(=O)N[C@@H]([C@@H](C)CC)C(=O)N(C)CC(=O)N(C)[C@H]3C/C=C\CCN(C3=O)[C@@H](Cc3ccc(C(F)(F)F)cc3)C(=O)N(C)CC(=O)N[C@@H](CCc3cc(F)c(C(F)(F)F)c(F)c3)C(=O)N2C1 [PP1633] | 15.1 | 0.6 | B (a compound having 3 or more and less than 10 is denoted as B) | A (a compound having 10 or more and less than 20 is denoted as A) |
| CCO[C@@H]1C[C@H]2C(=O)NC3(CCC3)C(=O)N(C)[C@@H](C(CC)CC)C(=O)N(C)[C@H](CC)CC(=O)N(C)[C@@H](CC3CC3)C(=O)N[C@@H]([C@@H](C)CC)C(=O)N(C)CC(=O)N(C)[C@H]3C/C=C\CCN(C3=O)[C@@H](Cc3ccc(C(F)(F)F)cc3)C(=O)N(C)CC(=O)N[C@@H](CCc3cc(F)c(C(F)(F)F)c(F)c3)C(=O)N2C1 [PP1630] | 144 | 1.8 | A (a compound having 10 or more and less than 20 is denoted as A) | A (a compound having 10 or more and less than 20 is denoted as A) |
| CCCN1C(=O)CN(C)C(=O)CN(C)C(=O)[C@H]([C@@H](C)CC)NC(=O)[C@H](CC(C)C)N(C)C(=O)C[C@@H](C(=O)N2CCCCC2)N(C)C(=O)[C@H](C2CCCC2)N(C)C(=O)C2(CCC2)NC(=O)[C@@H]2CCCN2C(=O)[C@H](CCc2ccc(C(F)(F)F)c(Cl)c2)NC(=O)CN(C)C(=O)[C@@H]1Cc1ccc(C(F)(F)F)cc1 [PP1930] ([NMeL]I[Sar][Sar][NPrPhe(4-CF3)][Sar][hPhe(3-Cl-4-CF3)]P[Ac4c][NMeGly(cPent)][NMeD]-Piperidide; lactam N-11) | 7 | 0.23 | C (A compound having a KD ratio of 0.1 or more and less than 3 is denoted as C) | B (a compound having 3 or more and less than 10 is denoted as B) |

The remaining compounds from weak to strong by IC50 [1], led by results:

| IC50 [1] [nM] | Kd [4] [nM] | SMILES | HRAS/KRAS (KD ratio) [2] | NRAS/KRAS (KD ratio) [3] |
| --- | --- | --- | --- | --- |
| 10.3 | 0.14 | CCCC[C@H]1C(=O)N[C@@H]([C@@H](C)CC)C(=O)N(C)CC(=O)N(C)[C@H]2C/C=C\CCN(C2=O)[C@@H](Cc2ccc(C(F)(F)F)cc2)C(=O)N(C)CC(=O)N[C@@H](CCc2cc(F)c(C(F)(F)F)c(F)c2)C(=O)N2C[C@H](OCC)C[C@H]2C(=O)NC2(CCC2)C(=O)N(C)[C@@H](C2CCCC2)C(=O)N(C)[C@H](C(=O)N(C)CCC)CC(=O)N1C [PP1704] | A (a compound having 10 or more and less than 20 is denoted as A) | A (a compound having 10 or more and less than 20 is denoted as A) |
| 3.1 | 0.06 | C#CC[C@H]1C(=O)N[C@@H]([C@@H](C)CC)C(=O)N(C)CC(=O)N(C)[C@H]2C/C=C\CCN(C2=O)[C@@H](Cc2ccc(C(F)(F)F)cc2)C(=O)N(C)CC(=O)N[C@@H](CCc2cc(F)c(C(F)(F)F)c(F)c2)C(=O)N2C[C@H](F)C[C@H]2C(=O)NC2(CC(C)(C)C2)C(=O)N(C)[C@@H](C2CCCC2)C(=O)N(C)[C@H](C(=O)N(C)CC)CC(=O)N1C [PP1691] | A (a compound having 10 or more and less than 20 is denoted as A) | A (a compound having 10 or more and less than 20 is denoted as A) |
| 3 | 0.077 | CCO[C@@H]1C[C@H]2C(=O)NC3(CC(C)(C)C3)C(=O)N(C)[C@@H](C3CCCC3)C(=O)N(C)[C@H](C(=O)N(C)CC)CC(=O)N(C)[C@@H](COC)C(=O)N[C@@H]([C@@H](C)CC)C(=O)N(C)CC(=O)N(C)[C@H]3C/C=C\CCN(C3=O)[C@@H](Cc3ccc(C(F)(F)F)cc3)C(=O)N(C)CC(=O)N[C@@H](CCc3cc(F)c(C(F)(F)F)c(F)c3)C(=O)N2C1 [PP1671] | A (a compound having 10 or more and less than 20 is denoted as A) | A (a compound having 10 or more and less than 20 is denoted as A) |
| 3 | 0.064 | CCCOC[C@H]1C(=O)N[C@@H]([C@@H](C)CC)C(=O)N(C)CC(=O)N(C)[C@H]2C/C=C\CCN(C2=O)[C@@H](Cc2ccc(C(F)(F)F)cc2)C(=O)N(C)CC(=O)N[C@@H](CCc2ccc(C(F)(F)F)c(Cl)c2)C(=O)N2C[C@H](OCC)C[C@H]2C(=O)NC2(CC(C)(C)C2)C(=O)N(C)[C@@H](C2CCCC2)C(=O)N(C)[C@H](C(=O)N(C)C)CC(=O)N1C [PP1754] | A (a compound having 10 or more and less than 20 is denoted as A) | A (a compound having 10 or more and less than 20 is denoted as A) |
| 3 | 0.071 | CCO[C@@H]1C[C@H]2C(=O)NC3(CC(C)(C)C3)C(=O)N(C)[C@@H](C3CCCC3)C(=O)N(C)[C@H](C(=O)N(C)C)CC(=O)N(C)[C@@H](CC(F)(F)F)C(=O)N[C@@H]([C@@H](C)CC)C(=O)N(C)CC(=O)N(C)[C@H]3C/C=C\CCN(C3=O)[C@@H](Cc3ccc(C(F)(F)F)cc3)C(=O)N(C)CC(=O)N[C@@H](CCc3ccc(C(F)(F)F)c(OC)c3)C(=O)N2C1 [PP1675] | B (a compound having 3 or more and less than 10 is denoted as B) | A (a compound having 10 or more and less than 20 is denoted as A) |
| 1.9 | 0.12 | CCO[C@@H]1C[C@H]2C(=O)NC3(CC(C)(C)C3)C(=O)N(C)[C@@H](C3CCCC3)C(=O)N(C)[C@H](C(=O)N(C)CC)CC(=O)N(C)[C@@H](CC)C(=O)N[C@@H]([C@@H](C)CC)C(=O)N(C)CC(=O)N(C)[C@H]3C/C=C\CCN(C3=O)[C@@H](Cc3ccc(C)cc3)C(=O)N(C)CC(=O)N[C@@H](CCc3cc(F)c(C(F)(F)F)c(F)c3)C(=O)N2C1 [PP1886] | B (a compound having 3 or more and less than 10 is denoted as B) | A (a compound having 10 or more and less than 20 is denoted as A) |
